From patent US8835467B2, “SIR2 regulation” (Albert Einstein College of Medicine of Yeshiva University, priority 2003, dated 2014) come the findings set out here.

Values joined by “and” are separate entries in the source; they are usually repeats but may differ in a detail not shown here. Equal entries are not always repeated.

Test [1] concerns the target T1, Sir2p (yeast) (Saccharomyces cerevisiae, UniProt P06700). Description: HPLC assay of deacetylation, histone H4 substrate (Example 3). The conditions noted are these: Yeast enzyme. It is filed as biochemical.
The target of test [2] is T2, Af2Sir2 (archaean) (Archaeoglobus fulgidus, UniProt O30124).
T2 sequence (O30124 1-253): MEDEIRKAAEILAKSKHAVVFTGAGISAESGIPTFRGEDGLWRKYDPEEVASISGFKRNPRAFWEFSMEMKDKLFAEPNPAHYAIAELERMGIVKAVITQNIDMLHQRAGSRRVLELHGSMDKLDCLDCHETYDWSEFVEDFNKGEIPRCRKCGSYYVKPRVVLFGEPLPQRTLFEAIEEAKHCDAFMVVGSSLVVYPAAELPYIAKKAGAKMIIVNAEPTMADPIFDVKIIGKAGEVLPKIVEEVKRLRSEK
Description: biochemical.
Description: (§4) NAD^+ in 50 μL 50 mM potassium phosphate pH 7.0. Each solution also contained a variable amount of 2-Fluoronicotinamide with concentrations of 0, 5, 10, 20, 40 and 80 mM of the compound. […] Deacetylation was assayed by integration of the peaks for AADPR and ADPR in reaction mixtures.

Test [3] concerns the target T1, Sir2p (yeast). Description: HPLC assay of base exchange, histone H4 substrate (Example 3). The test is classed as biochemical. The conditions noted are these: for % rate (base exchange) / Cpm/sample (radioactivity in NAD peak): Yeast enzyme.
For test [4], the target named is T2, Af2Sir2 (archaean). The test is described as above. The conditions noted are these: Archaea enzyme.
Description: as §4
For test [5], the target named is T2, Af2Sir2 (archaean). Description: HPLC assay of deacetylation, histone H4 substrate (Example 3). It is filed as biochemical. The conditions noted are these: Archaea enzyme.
Test [6] has as its target T3, Bacterial SIR2Af2 (Archaeoglobus fulgidus, UniProt O30124).
T3 construct: made in house
T3 sequence (O30124 1-253): T2 sequence (O30124 1-253)
The test is described as follows: SIR2 deacetylation assay (p53 peptide, HPLC of ADPR and 3′-O-acetyl-ADPR). The test is classed as biochemical, Archeaglobus fulgidus. On the procedure:
(§1) After 2 hours, aliquots of 10 μL removed at 0, 30, 60, 90 and 120 min. Each aliquot was combined with 50 μL 50 mM ammonium acetate pH 5.0 to quench and assayed by HPLC for deacetylation products and NAD^+. The chromatograms (260 nm) were obtained using 50 mM ammonium acetate pH 5.0 as eluant on a semi-preparative Waters C-18 column (2.0 mL/min flow rate). Peaks for ADPR and 3′-O-Acetyl-ADPR were quantified by integration. The peak for NAD^+ was collected and radiation counted. […] Plots of deacetylation rate versus nicotinamide were fit to the equations described in the text.
Reactions were as above but base reactions contained 5 mM of pyrazinamide, isonicotinamide, thionicotinamide, or benzamide. Reactions were carried out (2 hours for AF2 and yeast enzymes and 3 hours for mouse enzyme) at 37° C. and quenched by addition of 80 μL 50 mM ammonium acetate pH 5.0. Product formation was quantified by HPLC. Thionicotinamide-NAD^+ was synthesized by CD38. Rates were compared with controls lacking added base.

The target in test [7] is T4, Yeast SIR2p (Saccharomyces cerevisiae, UniProt P06700).
T4 construct: made in house
Described as above. It is filed as biochemical. On the procedure: (§2) After 2 hours, aliquots of 10 μL removed at 0, 30, 60, 90 and 120 min. Each aliquot was combined with 50 μL 50 mM ammonium acetate pH 5.0 to quench and assayed by HPLC for deacetylation products and NAD^+. The chromatograms (260 nm) were obtained using 50 mM ammonium acetate pH 5.0 as eluant on a semi-preparative Waters C-18 column (2.0 mL/min flow rate). Peaks for ADPR and 3′-O-Acetyl-ADPR were quantified by integration. The peak for NAD^+ was collected and radiation counted.
(§3) Reactions were as above but base reactions contained 5 mM of pyrazinamide, isonicotinamide, thionicotinamide, or benzamide. Reactions were carried out (2 hours for AF2 and yeast enzymes and 3 hours for mouse enzyme) at 37° C. and quenched by addition of 80 μL 50 mM ammonium acetate pH 5.0. Product formation was quantified by HPLC. […] Rates were compared with controls lacking added base.

For test [8], the target named is T5, Mouse SIR2 enzyme (SIR2α) (Mus musculus, UniProt Q923E4).
T5 construct: purchased Upstate Group
T5 sequence (Q923E4 1-737): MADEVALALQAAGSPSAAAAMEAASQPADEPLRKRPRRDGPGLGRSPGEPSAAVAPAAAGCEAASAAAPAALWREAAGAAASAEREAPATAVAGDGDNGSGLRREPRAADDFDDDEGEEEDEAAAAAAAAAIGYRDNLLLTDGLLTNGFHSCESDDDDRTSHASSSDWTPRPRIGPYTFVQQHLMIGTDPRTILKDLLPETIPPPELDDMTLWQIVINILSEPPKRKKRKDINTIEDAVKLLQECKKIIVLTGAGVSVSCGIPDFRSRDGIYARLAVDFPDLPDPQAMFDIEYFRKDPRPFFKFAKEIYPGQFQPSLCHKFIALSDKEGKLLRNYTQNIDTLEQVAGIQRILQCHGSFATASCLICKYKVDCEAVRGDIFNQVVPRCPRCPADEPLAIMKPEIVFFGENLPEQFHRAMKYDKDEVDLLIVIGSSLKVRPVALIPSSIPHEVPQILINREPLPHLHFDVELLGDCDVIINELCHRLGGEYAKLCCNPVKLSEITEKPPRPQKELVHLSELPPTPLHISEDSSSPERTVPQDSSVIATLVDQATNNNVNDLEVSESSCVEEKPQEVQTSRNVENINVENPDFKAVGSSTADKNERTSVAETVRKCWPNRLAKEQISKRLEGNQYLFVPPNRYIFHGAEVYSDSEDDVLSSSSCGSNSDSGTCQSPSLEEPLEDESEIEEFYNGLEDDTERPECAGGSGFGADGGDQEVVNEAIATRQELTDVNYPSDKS
The description is as above. It is filed as biochemical. The method, then: as §2, §3

Test [9] deals with Yeast Sir2 (Saccharomyces cerevisiae, UniProt P06700). Description: Sir2 catalyzed deacetylation of H4 N-terminal peptide. The conditions noted are these: Ki, apparent nicotinamide inhibition constant (deacetylation). The test is classed as biochemical. The method, then: Measurements were performed by methods described in Sauve and Schramm (2003) with the H4N-terminal peptide (AGG(AcK)GG(AcK)GMG(AcK)VGA(AcK)RHSC) (Imai et al., 2000) as substrate.

In test [10] the test system is Sir2-dependent transcriptional silencing at the silent mating-type loci (HMR, HML). The test is described as follows: Silent mating-type locus reporter silencing, spot assay. The test is classed as cell-based, yeast. On the procedure:
The photographs were taken after 2 to 3 days incubation. […] Isogenic strains UCC4562 (DOT1) and UCC4554 (dot1Δ) (Singer et al., 1998) are shown in each panel (top and bottom rows, respectively). […] The phenotype of strain CCFY10028 (top row) is compared to an isogenic sir2 derivative (bottom row). The sir2 deletion strain was generated by PCR-mediated gene disruption using a Nat-MX selectable marker (Tong et al., 2004).
The deletion strains were generated by PCR-mediated gene disruption using a Nat-MX selectable marker (Tong et al., 2004). Silencing at TEL-VR::URA3 is reported by survival on FOA-containing media and at HMR::TRP1 is detected by reduced growth on media lacking tryptophan.
The effect of isonicotinamide on Sir2 activity at the silent mating-type loci was measured in an HMR: TRP1 strain by growth on medium lacking tryptophan (FIG. 8b). Silencing of TRP1 decreases growth on Trp^− media.

For test [11], the target named is T3, Bacterial SIR2Af2. Description: SIR2 nicotinamide base-exchange assay (p53 peptide, HPLC/14C). The test is classed as biochemical, Archeaglobus fulgidus. Set-up: kcat (exchange): dose or concentration left out as unconfirmed. The method, then: as §1
Test [12] concerns the target T4, Yeast SIR2p. The test is described as above. Also on record: kcat (exchange): dose or concentration left out as unconfirmed. The test is classed as biochemical. On the procedure: as §2
Test [13] deals with T5, Mouse SIR2 enzyme (SIR2α). Described as above. It is filed as biochemical. Also on record: kcat (exchange): dose or concentration left out as unconfirmed. On the procedure:
as §2

T1 sequence (P06700 whole entry): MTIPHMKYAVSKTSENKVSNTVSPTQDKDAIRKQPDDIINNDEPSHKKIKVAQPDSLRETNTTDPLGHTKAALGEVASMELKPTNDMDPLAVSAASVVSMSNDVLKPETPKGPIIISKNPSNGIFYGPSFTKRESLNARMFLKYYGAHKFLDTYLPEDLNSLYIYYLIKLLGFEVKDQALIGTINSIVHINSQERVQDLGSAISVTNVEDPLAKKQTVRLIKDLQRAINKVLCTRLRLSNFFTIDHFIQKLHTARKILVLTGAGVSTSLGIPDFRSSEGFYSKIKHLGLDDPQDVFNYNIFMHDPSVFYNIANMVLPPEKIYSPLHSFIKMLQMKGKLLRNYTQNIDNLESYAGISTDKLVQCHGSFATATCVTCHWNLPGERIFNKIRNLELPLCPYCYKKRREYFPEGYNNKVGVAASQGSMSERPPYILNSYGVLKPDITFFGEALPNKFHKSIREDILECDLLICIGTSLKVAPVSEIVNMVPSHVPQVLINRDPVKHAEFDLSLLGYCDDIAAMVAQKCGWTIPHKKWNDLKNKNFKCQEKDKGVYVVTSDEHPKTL
Sequence of Yeast Sir2 (P06700 whole entry): as above
T4 sequence (P06700 whole entry): as above

For `NC(=O)c1cccnc1F`, the “% rate (deacetylation)” value in test [1] (5 mM) stood at 100%; in test [1] (10 mM), 97%; in [1] (20 mM), 100%; in [1] (40 mM), 95%; in test [1] (80 mM), 95%; in test [5] (5 mM), 100%. The “% rate (deacetylation)” value in test [5] (10 mM), in [5] (20 mM), in test [5] (40 mM) and in [5] (80 mM) was 100% throughout. For the same compound, the Ki in test [2] amounted to 43000 µM; in test [3], 20000 µM. Moreover, the “% rate (base exchange)” value is reported as 76% in test [3] (5 mM); 58% in test [3] (10 mM); 47% in test [3] (20 mM); 36% in [3] (40 mM); 28% in test [3] (80 mM); 91% in test [4] (5 mM). The “% rate (base exchange)” value is listed as 80% in test [4] (10 mM), 73% in [4] (20 mM), 50% in test [4] (40 mM) and 35% in test [4] (80 mM). Further, the “Cpm/sample (radioactivity in NAD peak)” value is reported as 24,500 Cpm/sample in test [3] (5 mM); 18,800 Cpm/sample in test [3] (10 mM); 15,200 Cpm/sample in test [3] (20 mM); 11,600 Cpm/sample in test [3] (40 mM); 9,000 Cpm/sample in test [3] (80 mM); 18,200 Cpm/sample in [4] (5 mM). For the same compound, the “Cpm/sample (radioactivity in NAD peak)” value in [4] (10 mM) was 16,100 Cpm/sample; in test [4] (20 mM) it was 14,600 Cpm/sample; in test [4] (40 mM) it was 10,300 Cpm/sample; in [4] (80 mM), 7,000 Cpm/sample.

Consider `NC(=O)c1ccccc1` [Benzamide], for which the inhibition at 5000 µM in [6] came out at 5%; in [7], 0%; in [8], 44%.

As for `NC(=O)c1cnccn1` [Pyrazinamide], the inhibition at 5000 µM in test [6] came to 4%; in test [7], 1%; in test [8], 1%.

Regarding `NC(=S)c1cccnc1` [Thionicotinamide], the results for the inhibition at 5000 µM in test [6], in [7] and in test [8] were 4%, 15% and 16%, respectively.

On to `NC(=O)c1cccnc1` [nicotinamide], for which the Ki in [9] (0 mM isonicotinamide) was 100 µM; in test [9] (60 mM isonicotinamide), 180 µM; in test [9] (100 mM isonicotinamide) it was 330 µM; in [6], 26 ± 4 µM; in test [11], over 8000 µM; in [12], over 8000 µM. Moreover, the results for the Ki in [13], in [7] and in test [8] were over 8000 µM, 120 ± 25 µM and 160 µM, respectively. The “growth phenotype of isogenic sir2Δ strain” value in test [10] (HMR::TRP1, Trp− medium) is “Neither compound altered the growth phenotype”. For the same compound, in [10] (HMR::TRP1 strain, 5 mM nicotinamide), the “growth on Trp− medium” value is “increased growth”. In addition, the “intermediate returned to acetylated protein” value is on record as 21% in [6] (bacterial SIR2, saturation of the nicotinamide site); 65% in test [7] (yeast SIR2, saturation of the nicotinamide site); 95% in test [8] (mouse SIR2, saturation of the nicotinamide site). In addition, the “reduction of deacetylation rate by nicotinamide” value in test [6] (bacterial enzyme, high (>10 Ki) nicotinamide) is recorded as 21%; in [7] (yeast enzyme, high (millimolar) nicotinamide) it was 65%. In addition, the “kinh (deacetylation), residual deacetylation rate” value in test [6] (bacterial enzyme, in the presence of 2 mM nicotinamide) was 1.4 ± 0.2 min⁻¹; in [7] (yeast enzyme, in the presence of 2 mM nicotinamide), 0.60 ± 0.08 min⁻¹; in [8] (mouse enzyme, in the presence of 2 mM nicotinamide) it was 0.014 ± 0.002 min⁻¹. For the same compound, the “kcat (exchange)” value was 0.00583 ± 0.00067 s⁻¹ in test [11] (bacterial enzyme, from nicotinamide saturation curves, pH 7.8); 0.0967 ± 0.0067 s⁻¹ in test [12] (yeast enzyme, from nicotinamide saturation curves, pH 7.8); 0.05 ± 0.0033 s⁻¹ in [13] (mouse enzyme, from nicotinamide saturation curves, pH 7.8). Moreover, the “inhibition of deacetylation by nicotinamide” value in test [8] (mouse enzyme, high nicotinamide concentrations) is > 95% and 95%.

One may read the inhibition as the drop in the measured response relative to a control, in per cent.
